The source of these data is ChEMBL document CHEMBL1932957, “Synthesis of 2H-benzo[b][1,4]oxazin-3(4H)-one derivatives as platelet aggregation inhibitors” (Bioorg Med Chem Lett, 2012).

A word on the pIC50: it is the IC50 on a negative log10 scale, so that one unit is a factor of ten.

pIC50: −log10 of the molar value.

A short description of the assay: Antiplatelet activity in rabbit platelet rich plasma assessed as inhibition of ADP-induced platelet aggregation treated for 5 mins before ADP challenge measured for 6 mins by microplate reader. The class given is functional, cell-free. The following applies: Oryctolagus cuniculus.
Regarding `CCCN1C(=O)COc2cc(CNc3ccccc3)ccc21`, the pIC50 is 4.99.

With `CCCCN1C(=O)COc2cc(CNc3ccccc3)ccc21`, the pIC50 was 4.82.

As for `CCCN1C(=O)COc2cc(CNc3ccccc3C)ccc21`, the pIC50 was 4.73.

In the case of `CCCCN1C(=O)COc2cc(CNc3ccccc3C)ccc21`, the negative-log IC50 (pIC50) is 4.73.

As to `CCCN1C(=O)COc2cc(CNc3cccc(C)c3)ccc21`, the negative logarithm of the IC50 (pIC50) is 4.86.

On to `CCCCN1C(=O)COc2cc(CNc3cccc(C)c3)ccc21`, for which the pIC50 was 4.90.

Regarding `CCCN1C(=O)COc2cc(CNc3ccc(C)cc3)ccc21`, the pIC50 was 4.85.

In the case of `CC(=O)Oc1ccccc1C(=O)O` [ASPIRIN], the pIC50 is 5.22.

For `Clc1ccccc1CN1CCc2sccc2C1` [TICLOPIDINE], the pIC50 is 5.50.
